“Also recorded” adds a separate entry of the source.
Test system: MDR2
Assay: Hepatic expression of phospholipid transporter MDR2 (Northern blot)
Type: in vivo, mouse
Description: Expression of Specific Bile Salts (Ntcp, Bsep), Phospholipid (MDR2) and Organic Anions or Glutathione (MRP2); And Determination of Glutathione Synthesis (Gluthamylcystein-Synthetase (GGCS)).
Total RNA extraction. 80 mg hepatic tissue frozen at −70° C. was homogenized in 800 μl solution D, following the method described by Chomczynski and Sacchi, 1987. The RNA concentration was calculated by measuring the absorbance at 260 nm and its purity by the ratio OD260/OD280. The samples are stored at −20° C. RNA electrophoresis. 10 μg of total RNA are dried under gaseous N2 or vacuum for 10 minutes. 10 μl loading buffer were added, and the samples heated to 65° C., loaded into a denaturing 1% agarose/formaldehyde gel and run at 100 volts for 4 hours. The RNA integrity was determined by the clear visualization of the 28 S and 18 S ribosomal RNAs (FIG. 8).
Northern Blot and hybridization with radioactive probes. The gel with the RNA samples is washed with DEPC H2O for 10 minutes to eliminate formaldehyde and then incubated for 20 minutes with 50 mM NaOH for partial RNA hydrolysis. After a 10 minute wash with DEPC H2O to eliminate NaOH, the samples are transferred from the gel to Nylon membranes (Hybond-N, Amersham Pharmacia) over night by a capillary system. […]
Probe labeling by “de novo synthesis”. […] The percentage of incorporated radioactivity into the probe was always over 60%. […]

In the case of `O=C1[C@H](CC[C@H](O)c2ccc(F)cc2)[C@@H](c2ccc(O)cc2)N1c1ccc(F)cc1` [Ezetimibe, (−)-1-(4-fluorophenyl)-(3R)-[3-(4-fluorophenyl)-(.S)-hydroxypropyl]-(4S)-(4-hydroxyphenyl)-2-azetidinone], the “phospholipid transporter MDR2 at the mRNA level” value (lithogenic diet plus Ezetimibe vs lithogenic diet, 14 days) was “small but statistically significant decrease; also recorded: slight but statistically significant decrease” and the mdr2 protein levels (lithogenic diet plus Ezetimibe, data not shown) was “no concomitant decrease”.
